Experimental findings from patent US10471050B2, “2-OXO-1,2-dihydropyridine-3,5-dicarboxamide compounds as bromodomain inhibitors” (GlaxoSmithKline Intellectual Property (No. 2) Limited, priority 2015, dated 2019) are described below.

The target in one assay is T1, BRD4 BD2 (Homo sapiens, UniProt O60885, Y97A).
T1 construct: BRD4 (1-477) (Y97A) and (Y390A); made in house; host or cells: E. coli (pET15b vector)
As to the kind of experiment: BRD4 BD2 TR-FRET competition assay. Type of assay: binding. To be noted: single mutant tandem BRD4, read-out: pIC50 in the BRD4 BD2 assay (converted). As for the experimental part:
Bromodomain binding was assessed utilising a time resolved fluorescent resonance energy transfer (TR-FRET) competition assay. To enable this approach a known, high affinity, pan-BET interacting small molecule was labelled with Alexa Fluor® 647, which is a far-red-fluorescent dye (Reference Compound X). Reference Compound X acts as a reporter of bromodomain binding and is the acceptor fluorophore component of the TR-FRET pair. Europium chelate, conjugated to an anti-6*His antibody, was utilised as the donor fluorophore in the TR-FRET pair. […] A TR-FRET signal is generated when the donor and acceptor fluorophores are in close proximity, between 20-80 Å, which is enabled in this assay by binding of Reference Compound X to the bromodomain protein.
In order to generate a TR-FRET signal, donor fluorophore is excited by a laser at λ337 nm, which subsequently leads to emission at λ618 nm. If the acceptor fluorophore is in close proximity then energy transfer can occur, which leads to emission of Alexa Fluor® 647 at λ665 nm. In the presence of competitor compound, Reference Compound X can be displaced from binding to the bromodomain. If displacement occurs, the acceptor fluorophore is no longer in proximity to the donor fluorophore, which prevents fluorescent energy transfer and, subsequently, a loss of Alexa Fluor® 647 emission at λ665 nm.
(§1) The competition of the compounds of formula (I) with Reference Compound X for binding to the BET family (BRD2, BRD3, BRD4 and BRDT) was assessed using protein truncates spanning both bromodomain 1 (BD1) and bromodomain 2 (BD2). In order to monitor differential binding to either BD1 or BD2, single residue mutations of key tyrosines to alanine were made in the acetyl lysine binding pockets. To validate this approach, a double residue mutant tandem domain protein was produced for each of the BET family members. Utilising a Fluorescence Polarisation approach, binding affinities for each of the single and double mutants for Reference Compound X were determined.
Final purification was completed by Superdex 200 prep grade size exclusion column. Purified protein was stored at −80° C. in 20 mM HEPES pH 7.5 and 100 mM NaCl.
All assay components were dissolved in an assay buffer composing of 50 mM HEPES pH7.4, 50 mM NaCl, 5% Glycerol, 1 mM DTT and 1 mM CHAPS. Reference Compound X was diluted, in assay buffer containing 20 nM single mutant, tandem bromodomain protein, to a concentration equivalent to 2*Kd for this bromodomain. The solution containing bromodomain and Reference Compound X was added to dose response dilutions of test compound or DMSO vehicle (a maximum of 0.5% DMSO is used in this assay) in Greiner 384 well black low volume microtitre plates and subsequently incubated for 30 minutes at room temperature. An equal volume of 3 nM of anti-6*His Europium chelate was added to all wells, followed by a further 30 minute incubation at room temperature. TR-FRET was detected using a Perkin Elmer Multimode plate reader, by exciting the donor fluorophore at λ337 nm and subsequently, after a delay of 50 μsecs, measuring emission of the donor and acceptor fluorophores at λ615 nm and λ665 nm, respectively. In order to control these assays, 16 replicates each of uninhibited (DMSO vehicle) and inhibited (10*IC50 concentrations of Example 11 of WO 2011/054846A1) TR-FRET assays were included on every microtitre plate.
cA four parameter curve fit of the following form was then applied: y=a+((b−a)/(1+(10^x/10^c)^d)
Where ‘a’ is the minimum, ‘b’ is the Hill slope, ‘c’ is the pIC50 and ‘d’ is the maximum.

For assay [1], the system named is BET family (BRD2, BRD3, BRD4 and BRDT) tandem bromodomain proteins, Tyr to Ala mutants. As to the kind of experiment: Fluorescence Polarisation binding of Reference Compound X to single and double mutant tandem BET proteins. Set-up: species or system Human. As for the experimental part:
as §1, with “determined. […] The affinities of the single mutated bromdomain tandem proteins for Reference Compound X were equi-potent with the corresponding non-mutated BET protein. […] In the TR-FRET competition assay, Reference Compound X is used at a concentration that is equivalent to the Kd for the non-mutated bromodomain, which ensures that no binding at the mutated bromodomain is detected.” for “determined.”
Protein production: Recombinant Human Bromodomains [(BRD2 (1-473) (Y113A) and (Y386A), BRD3 (1-435) (Y73A) and (Y348A) BRD4 (1-477) (Y97A) and (Y390A) and BRDT (1-397) (Y66A) and (Y309A)] were expressed in E. coli cells (in pET15b vector for BRD2/3/4 and in pET28a vector for BRDT) with a 6-His tag at the N-terminal. The His-tagged Bromodomain pellet was resuspended in 50 mM HEPES (pH7.5), 300 mM NaCl, 10 mM imidazole & 1 μl/ml protease inhibitor cocktail and extracted from the E. coli cells using sonication and purified using a nickel sepharose high performance column, the proteins were washed and then eluted with a linear gradient of 0-500 mM imidazole with buffer 50 mM HEPES (pH7.5), 150 mM NaCl, 500 mM imidazole, over 20 column volumes. Final purification was completed by Superdex 200 prep grade size exclusion column. Purified protein was stored at −80° C. in 20 mM HEPES pH 7.5 and 100 mM NaCl. Protein identity was confirmed by peptide mass fingerprinting and predicted molecular weight confirmed by mass spectrometry.
In general terms: Polarisation of emitted light reports the rotation of a fluorescent probe.

SMILES strings stand for the structures.

Regarding `CNC(=O)c1cc(C(=O)NCCC(C)N(C)C)cn(Cc2ccccc2)c1=O` (stereo not drawn) [Example 33, 1-Benzyl-N^5-(3-(dimethylamino)butyl)-N^3-methyl-2-oxo-1,2-dihydropyridine-3,5-dicarboxamide], the IC50 on BRD4 BD2 is 100 to 1000 nM.
In the case of `CNC(=O)c1cc(C(=O)NCCc2ccncc2)cn(Cc2ccccc2)c1=O` [Example 34, 1-Benyl-N^3-methyl-2-oxo-N^5-(2-(pyridin-4-yl)ethyl)-1,2-dihydropyridine-3,5-dicarboxamide], at BRD4 BD2, the IC50 was 100 to 1000 nM.
As to `CNC(=O)CCNC(=O)c1cc(C(=O)NC)c(=O)n(Cc2ccccc2)c1` [Example 35, 1-Benzyl-N^3-methyl-N^5-(3-(methylamino)-3-oxopropyl)-2-oxo-1,2-dihydropyridine-3,5-dicarboxamide], the IC50 at BRD4 BD2 is 100 to 1000 nM.
`CNC(=O)c1cc(C(=O)NCCCC#N)cn(Cc2ccccc2)c1=O` [Example 36, 1-Benzyl-N^5-(3-cyanopropyl)-N^3-methyl-2-oxo-1,2-dihydropyridine-3,5-dicarboxamide]: the IC50 on BRD4 BD2 was 100 to 1000 nM.
Turning to `CNC(=O)c1cc(C(=O)NCCC#N)cn(Cc2ccccc2)c1=O` [Example 37, 1-Benzyl-N^5-(2-cyanoethyl)-N^3-methyl-2-oxo-1,2-dihydropyridine-3,5-dicarboxamide], the IC50 at BRD4 BD2 is 100 to 1000 nM.
In the case of `CNC(=O)c1cc(C(=O)NCCCN)cn(Cc2ccccc2)c1=O` [Example 38, N^5-(3-Aminopropyl)-1-benzyl-N^3-methyl-2-oxo-1,2-dihydropyridine-3,5-dicarboxamide], the IC50 on BRD4 BD2 was 100 to 1000 nM.
As for `CNC(=O)c1cc(C(=O)NCCC(C)O)cn(Cc2ccccc2)c1=O` (stereo not drawn) [Example 39, 1-Benzyl-N^5-(3-hydroxybutyl)-N^3-methyl-2-oxo-1,2-dihydropyridine-3,5-dicarboxamide], on BRD4 BD2, the IC50 is 100 to 1000 nM.
As for `CNC(=O)c1cc(C(=O)NCCc2cccnc2)cn(Cc2ccccc2)c1=O` [Example 40, 1-Benzyl-N^3-methyl-2 oxo-N^5-(2-(pyridin-3-yl)ethyl)-1,2-dihydropyridine-3,5-dicarboxamide], the IC50 at BRD4 BD2 is 100 to 1000 nM.
The same measure, in the same setting: under `CNC(=O)c1cc(C(=O)NCCCOC)cn(Cc2ccccc2)c1=O` [Example 42, 1-Benzyl-N^5-(3-methoxypropyl)-N^3-methyl-2-oxo-1,2-dihydropyridine-3,5-dicarboxamide] stands 100 to 1000 nM; under `CNC(=O)c1cc(C(=O)NC)c(=O)n(Cc2cccc(C#N)c2)c1` [Example 43, 1-(3-Cyanobenzyl)-N^3,N^5-dimethyl-2-oxo-1,2-dihydropyridine-3,5-dicarboxamide], 1000 to 100000 nM.
In the case of `CNC(=O)c1cc(C(=O)NCCS(C)(=O)=O)cn(Cc2ccccc2)c1=O` [Example 45, 1-Benzyl-N^3-methyl-N^5-(2-(methylsulfonyl)ethyl)-2-oxo-1,2-dihydropyridine-3,5-dicarboxamide], the IC50 on BRD4 BD2 is 100 to 1000 nM.
`CNC(=O)c1cc(C(=O)NCCCN(C)C)cn(Cc2ccccc2)c1=O` [Example 47, 1-Benzyl-N^5-(3-(dimethylamino)propyl)-N^3-methyl-2-oxo-1,2-dihydropyridine-3,5-dicarboxamide]: the IC50 at BRD4 BD2 is 100 to 1000 nM.
With `CNC(=O)c1cc(C(=O)NCCCS(C)(=O)=O)cn(Cc2ccccc2)c1=O` [Example 48, 1-Benzyl-N^3-methyl-N^5-(3-(methylsulfonyl)propyl)-2-oxo-1,2-dihydropyridine-3,5-dicarboxamide], the IC50 at BRD4 BD2 is 100 to 1000 nM.
Regarding `CNC(=O)c1cc(C(=O)NCCc2c[nH]cn2)cn(Cc2cccc(C)c2F)c1=O` [Example 49, N^5-(2-(1H-Imidazol-4-yl)ethyl)-1-(2-fluoro-3-methylbenzyl)-N3-methyl-2-oxo-1,2-dihydropyridine-3,5-dicarboxamide], the IC50 on BRD4 BD2 is 100 to 1000 nM.
In the case of `CNC(=O)c1cc(C(=O)NCCc2ccn[nH]2)cn(Cc2ccccc2)c1=O` [Example 50, N^5-(2-(1H-Pyrazol-5-yl)ethyl)-1-benzyl-N^3-methyl-2-oxo-1,2-dihydropyridine-3,5-dicarboxamide], the IC50 on BRD4 BD2 is 100 to 1000 nM.
With `CNC(=O)c1cc(C(=O)Nc2ccn(C)n2)cn(Cc2ccccc2)c1=O` [Example 51, 1-Benzyl-N^3-methyl-N^5-(1-methyl-1H-pyrazol-3-yl)-2-oxo-1,2-dihydropyridine-3,5-dicarboxamide], the IC50 on BRD4 BD2 is 100 to 1000 nM.
Consider `CNC(=O)c1cc(C(=O)NCCc2cnn(C)c2)cn(Cc2ccccc2)c1=O` [Example 52, 1-Benzyl-N^3-methyl-N^5-(2-(1-methyl-1H-pyrazol-4-yl)ethyl)-2-oxo-1,2-dihydropyridine-3,5-dicarboxamide], for which the IC50 on BRD4 BD2 is 100 to 1000 nM.
Consider `CNC(=O)c1cc(C(=O)Nc2cnn(C)c2)cn(Cc2ccccc2)c1=O` [Example 53, 1-Benzyl-N^3-methyl-N^5-(1-methyl-1H-pyrazol-4-yl)-2-oxo-1,2-dihydropyridine-3,5-dicarboxamide], for which, at BRD4 BD2, the IC50 was at most 100 nM.
On to `COc1ccc2c(c1)C(c1ccc(Cl)cc1)=N[C@@H](CC(=O)NCCCCCNC(=O)CCCCCC1(C)/C(=C/C=C/C=C/C3=[N+](CCCCS(=O)(=O)O)c4ccc(S(=O)(=O)O)cc4C3(C)C)N(CCCCS(=O)(=O)[O-])c3ccc(S(=O)(=O)O)cc31)c1nnc(C)n1-2` (stereo partly drawn) [Reference Compound X], for which the “reduction in Kd, double mutant tandem proteins versus non mutated wild type tandem BET proteins” value in assay [1] (double residue Tyr to Ala mutant tandem protein of each BET family member) is reported as over 1000 fold. Further, in assay [1] (single Tyr to Ala mutants), the “affinity of single mutated bromodomain tandem proteins versus corresponding non-mutated BET protein” value is recorded as “equi-potent”. Also, in assay [1] (single mutation of Tyrosine to Alanine), the “reduction of Kd of the interaction between the mutated bromodomain and Reference Compound X” value was over 1000 fold.
